Our source for the IC50 values is patent US5091397A (priority 1988, dated 1992).

Structures can show the parent of a compound that is named as a salt. Where two headings read alike, the source gives them in different places.

In test [1] the target is muscarinic receptors. It counts as binding, Hooded Lister rats. Conditions: displacement of muscarinic antagonist 3H-QNB (0.27nM), rat cerebral cortex, 37° C., 30 min.
Test [2] concerns the target muscarinic receptors. The experiment in a line: Radio ligand binding: displacement of the muscarinic agonist 3H-Oxotremorine-M (3H-OXO-M) from cerebral cortex membranes. Details: species or system Hooded Lister rats. Conditions: displacement of muscarinic agonist 3H-OXO-M (2nM), rat cerebral cortex, 2mM magnesium chloride, 37° C., 30 min.

With `Cc1noc(CC2CN3CCC2CC3)n1` (racemic) [Example E2, (±) 3-[(3-Methyl-1,2,4-oxadiazol-5-yl)methyl]-1-azabicyclo[2.2.2]octane hydrochloride salt], the values for the half-maximal inhibitory concentration (IC50) at muscarinic receptors [1] and on muscarinic receptors [2] were 13000 nM and 1050 nM, respectively.

As to `c1coc(CC2CN3CCC2CC3)n1` (racemic) [Example E3, (±) 3-(1,3-Oxazol-2-yl)methyl]-1-azabicyclo[2.2.2]octane oxalate salt], the values for the half-maximal inhibitory concentration (IC50) on muscarinic receptors [1] and on muscarinic receptors [2] were 7000 nM and 755 nM, respectively.

As for `Nc1noc(CC23CCCN(CC2)C3)n1` (racemic) [Example E4, (±) 5-[(3-Amino-1,2,4-oxadiazol-5-yl)methyl]-1-azabicyclo[3.2.1]octane], the IC50 on muscarinic receptors [1] came out at 6700 nM; at muscarinic receptors [2], 580 nM.

On to `c1coc(CC23CCCN(CC2)C3)c1` (racemic) [Example E12, (±) 5-[(Fur-2-yl)methyl-1-azabicyclo[3.2.1]octane oxalate salt], for which the IC50 at muscarinic receptors [1] is 4000 nM; on muscarinic receptors [2] it was 660 nM.

On muscarinic receptors [2], `c1csc(CC2CN3CCC2CC3)n1` (racemic) [Example E17, (±) 3-((1,3-Thiazol-2-yl)methyl)-1-azabicyclo[2.2.2]octane oxalate salt] registered an IC50 of 875 nM.

With `Nc1noc(C[C@@H]2CN3CC[C@@H]2C3)n1` (relative stereo) [Example E1, (±) exo 3-[(3-Amino-1,2,4-oxadiazol-5-yl)methyl]-1-azabicyclo[2.2.1]heptane], the 50% inhibitory concentration (IC50) came out at 7500 nM at muscarinic receptors [1] and 36.5 nM at muscarinic receptors [2].

As to `Nc1noc(C[C@H]2CN3CC[C@@H]2C3)n1` (relative stereo) [Example E5, (±) endo 3-[(3-Amino-1,2,4-oxadiazol-5-yl)methyl]-1-azabicyclo[2.2.1]heptane], the IC50 at muscarinic receptors [1] came to 21000 nM; on muscarinic receptors [2], 32 nM.

Regarding `Cc1noc(C[C@H]2CN3CC[C@@H]2C3)n1` (relative stereo) [Example E6, (±) endo 3-(3-Methyl-1,2.4-oxadiazol-5-yl)methyl-1-azabicyclo[2.2.1]heptane oxalate salt], the IC50 on muscarinic receptors [1] is 10200 nM; on muscarinic receptors [2], 150 nM.

As to `c1coc(C[C@H]2CN3CC[C@@H]2C3)n1` (relative stereo) [Example E7, (±) endo 3-(1,3-Oxazol-2-yl)methyl]-1-azabicyclo[2.2.1]heptane oxalate salt], the values for the IC50 on muscarinic receptors [1] and at muscarinic receptors [2] were 8000 nM and 42 nM, respectively.

As for `c1ncc(C[C@H]2CN3CC[C@@H]2C3)o1` (relative stereo) [Example E8, (±) endo 3-(1,3-Oxazol-5-yl)methyl-1-azabicyclo[2.2.1]heptane hydrochloride salt], the 50% inhibitory concentration (IC50) at muscarinic receptors [1] turned out to be 38000 nM; on muscarinic receptors [2], 625 nM.

For the compound `Nc1noc(C[C@@H]2C[C@@H]3CCN(C2)C3)n1` (relative stereo) [Example E9, (±) endo 3-[(3-Amino-1,2,4-oxadiazol-5-yl)methyl]-1-azabicyclo[3.2.1]octane], the IC50 at muscarinic receptors [1] is 4600 nM; on muscarinic receptors [2], 925 nM.

Regarding `c1coc(C[C@@H]2CN3CC[C@@H]2C3)n1` (relative stereo) [Example E10, (±) exo 3-(1,3-Oxazo1-2-yl)methyl-1-azabicyclo [2.2.1]heptane oxalate salt], the results for the 50% inhibitory concentration (IC50) at muscarinic receptors [1] and on muscarinic receptors [2] were 5600 nM and 38 nM, respectively.

For the compound `Cn1nnc(C[C@H]2CN3CC[C@@H]2C3)n1` (relative stereo) [Example E11, (±) endo 3-[(2-Methyltetrazol-5-yl)methyl]-1-azabicyclo[2.2.11]heptane oxalate salt], the results for the IC50 on muscarinic receptors [1] and on muscarinic receptors [2] were 8000 nM and 340 nM, respectively.

As for `Cc1nc(C[C@H]2CN3CC[C@@H]2C3)no1` (relative stereo) [Example E15, (±) endo 3-[(5-Methyl-1,2,4-oxadiazol-3-yl)methyl-1-azabicyclo[2.2.11]heptane hydrochloride salt], the 50% inhibitory concentration (IC50) was determined as 30500 nM on muscarinic receptors [1] and 950 nM on muscarinic receptors [2].

In the case of `Cc1nc(C[C@@H]2CN3CC[C@@H]2C3)no1` (relative stereo) [Example E16, (±) exo 3-[(5-Methyl-1,2,4-oxadiazol-3-yl)methyl)-1-azabicyclo[2.2.1]heptane hydrochloride salt], the half-inhibitory concentration (IC50) on muscarinic receptors [2] was 1000 nM.

Consider `Nc1noc(CC23CCN(CC2)C3)n1` [Example E13, 4-[(3-Amino-1,2,4-oxadiazol-5-yl)methyl]-1-azabicyclo[2.2.1]heptane], for which the results for the IC50 on muscarinic receptors [1] and at muscarinic receptors [2] were 85000 nM and 118 nM, respectively.

Take `c1coc(CC23CCN(CC2)C3)n1` [Example E14, 4-[(1,3-Oxazol-2-yl)methyl]-1-azabicyclo[2.2.1]heptane oxalate salt]: the IC50 on muscarinic receptors [1] was 74000 nM; at muscarinic receptors [2], 410 nM.
